Assays:
[1] = target: T1, GABAA receptor α1 subunit (native α1-containing receptors, nα1-GABAARs) (Mus musculus, UniProt P22723+P62812); assay: radioligand binding, scintillation proximity assay
T1 construct: gene Gabra1; native receptor ensemble purified from mouse brain (cerebellum excluded) in nanodiscs; with GABAA receptor γ2 subunit (Gabrg2); β2 subunit (Gabrb2) in the main assembly

[2] = target: T2, GABAA receptor α1 subunit (native α1*-β2-α1-β2*-γ2 nα1-GABAAR) (Mus musculus, UniProt P22723+P62812); assay: cryo-EM structure; competitive [3H]flunitrazepam scintillation proximity assay; format: binding
T2 construct: gene Gabra1; main assembly alpha1/beta2/gamma2

[3] = target: T3, GABAA receptor α1 subunit, as it stood in the measurement of the Kd of 8E3-GFP Fab (sample not stated) (Mus musculus (assumed; mature rat chain …, UniProt P62812); assay: not stated; dissociation constant of 8E3-GFP Fab, printed with a pointer to Extended Data Fig. 1; method and sample not told
T3 construct: GABAA receptor subunit alpha-1; the Kd may come from such a sample

CN1C(=O)CN=C(c2ccccc2F)c2cc([N+](=O)[O-])ccc21 [flunitrazepam]
Kd [1]: 6 ± 0.2 nM

Cc1ccc(-c2nc3ccc(C)cn3c2CC(=O)N(C)C)cc1 [ZOL, zolpidem]
Ki [2]: 22.9 ± 2.7 nM

B1: 8E3-GFP Fab (α1 subunit-specific Fab fragment of mouse monoclonal antibody 8E3, with 3C site, EGFP and twin-strep II tag on the heavy chain) (Fab, V domains shown)
VH: EIQLQQSGPELVKPGTSVKVSCKASGYSFTDYNMYWVKQSHGKSLEWIGYIDPYNADTTYNREFKGKATLTVDKSSSTAFMHLNSLTSEDSAVYYCARKRNNFYFDYWGQGTPLTVSS
VL: YIVMTQSPKSMSMSLGERVTLSCRASEYVGSYVSWYQQKPEQSPKLLIYGASNRYTGVPDRFAGSGSATDFTLTITSVQAEDLADYHCGQTYNYPTFGGGTKLEIK
notes: Fab heavy chain of 8E3; Fab light chain of 8E3; Both chains were expressed with an N-terminal GP64 signal peptide; also called α1-specific Fab; source: Sf9, recombinant baculovirus, secreted into the supernatant, purified (streptactin column); not shown: EGFP, C-terminal, kept; twin-strep II, C-terminal, kept
Kd [3]: 0.5 nM

From article PMC10550821, “Cryo-EM structures reveal native GABAA receptor assemblies and pharmacology” (Nature, 2023)
